Read-outs that look alike come from different tables or passages of the source. Numbered stars: 1 amine (or outer) side, 2 acyl side, 3 side chain; on linkers, the order of the positions; unused ones are H or OH. Square brackets hold non-standard residues; d marks the D form. Side chains are listed from the residue outwards. Peptide text beside a SMILES is read from it. * marks the point of attachment. γGlu = O=C(O)[C@H](CCC(=O)[*:2])N[*:1]; Palmitoyl = CCCCCCCCCCCCCCCC(=O)*; αMeF = C[C@](N)(Cc1ccccc1)C(=O)O; Aib = CC(C)(N)C(=O)O
Legend:
Type in all cases: cell-based
[1] = target: T1, human GLP-1 receptor (GLP-1R) (Homo sapiens, UniProt P43220); test: cAMP assay, human GLP-1R cells
T1 construct: expressed in transfected cells
In short: (§1)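 Peptide-stimulated cAMP measured by two-step HTRF after a 30 min room-temperature incubation with receptor-expressing cells (hGLP-1R, hGIPR at 1×10^5 cells/ml; hGCGR at 2×10^5 cells/ml). Duplicate dilutions; EC50 from 4-parameter logistic fit of % Delta F.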

[2] = target: T2, human glucagon receptor (GCGR) (Homo sapiens, UniProt P47871); test: cAMP assay, human GCGR cells; conditions: cAMP assay
T2 construct: expressed in transfected cells
In short: as §1

[3] = target: T3, human glucose-dependent insulinotropic peptide receptor (GIPR) (Homo sapiens, UniProt P48546); test: cAMP assay, human GIPR cells; conditions: cAMP assay
T3 construct: expressed in transfected cells
T3 sequence (P48546 22-466): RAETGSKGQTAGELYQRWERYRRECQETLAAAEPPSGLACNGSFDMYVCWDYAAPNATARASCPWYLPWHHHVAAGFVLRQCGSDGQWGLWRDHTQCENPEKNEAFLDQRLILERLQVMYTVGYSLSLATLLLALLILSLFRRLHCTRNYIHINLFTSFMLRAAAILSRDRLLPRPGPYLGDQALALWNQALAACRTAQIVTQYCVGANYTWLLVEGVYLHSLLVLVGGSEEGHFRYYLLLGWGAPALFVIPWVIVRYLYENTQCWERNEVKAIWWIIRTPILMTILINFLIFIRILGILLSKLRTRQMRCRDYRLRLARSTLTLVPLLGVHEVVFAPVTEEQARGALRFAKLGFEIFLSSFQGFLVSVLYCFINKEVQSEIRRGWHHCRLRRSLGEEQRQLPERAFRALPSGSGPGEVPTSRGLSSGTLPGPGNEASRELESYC
In short: as §1

[4] = cAMP assay, first determination (n1), read-out: Primary assay EC50 GLP-1R n1
[5] = cAMP assay, second determination (n2), read-out: Primary assay EC50 GLP-1R n2
[6] = mean of n1 and n2, read-out: Mean pM GLP-1R
[7] = first determination (n1), read-out: Primary assay EC50 Gluc-R (n1)
[8] = second determination (n2), read-out: Primary assay EC50 Gluc-R (n2)
[9] = first determination (n1), read-out: Primary assay EC50 GIP-R (n1)
[10] = second determination (n2), read-out: Primary assay EC50 GIP-R (n2)

T1 sequence (P43220 24-463): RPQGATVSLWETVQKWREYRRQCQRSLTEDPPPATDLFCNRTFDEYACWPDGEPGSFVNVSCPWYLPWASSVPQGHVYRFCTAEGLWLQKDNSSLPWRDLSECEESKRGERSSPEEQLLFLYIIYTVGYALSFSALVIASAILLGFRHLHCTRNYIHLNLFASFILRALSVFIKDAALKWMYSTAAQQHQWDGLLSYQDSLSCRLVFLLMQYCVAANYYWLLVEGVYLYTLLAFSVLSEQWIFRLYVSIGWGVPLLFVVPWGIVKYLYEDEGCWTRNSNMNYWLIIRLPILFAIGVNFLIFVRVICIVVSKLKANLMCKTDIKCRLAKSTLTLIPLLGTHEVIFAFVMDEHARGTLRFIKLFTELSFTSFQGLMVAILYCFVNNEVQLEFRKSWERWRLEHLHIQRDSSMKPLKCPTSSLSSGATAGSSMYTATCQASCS
T2 sequence (P47871 26-477): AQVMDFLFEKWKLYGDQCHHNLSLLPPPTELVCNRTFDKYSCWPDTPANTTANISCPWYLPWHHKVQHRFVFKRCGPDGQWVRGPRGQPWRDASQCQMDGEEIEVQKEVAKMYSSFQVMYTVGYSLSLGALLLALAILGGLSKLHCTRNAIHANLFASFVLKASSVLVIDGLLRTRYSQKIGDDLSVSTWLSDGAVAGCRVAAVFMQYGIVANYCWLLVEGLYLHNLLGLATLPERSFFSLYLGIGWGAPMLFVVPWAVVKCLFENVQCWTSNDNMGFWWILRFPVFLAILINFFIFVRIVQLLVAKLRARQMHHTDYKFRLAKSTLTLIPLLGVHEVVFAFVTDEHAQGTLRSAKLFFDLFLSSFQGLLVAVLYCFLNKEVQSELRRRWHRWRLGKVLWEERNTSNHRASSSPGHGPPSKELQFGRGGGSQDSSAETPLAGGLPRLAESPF

Row | EC50 [1, 4] [pM] | EC50 [1, 5] [pM] | EC50 [1, 6] [pM] | EC50 [2, 7] [nM] | EC50 [2, 8] [nM] | EC50 [3, 9] [nM] | EC50 [3, 10] [nM] | Structure (SMILES) | EC50 ([2]; Primary assay EC50 Gluc-R (n1), first determination (n1)) [nM] | EC50 ([2]; read-out: Primary assay EC50 Gluc-R (n2), second determination (n2)) [nM] | EC50 ([3]; Primary assay EC50 GIP-R (n1), first determination (n1)) [nM] | EC50 ([3]; read-out: Primary assay EC50 GIP-R (n2), second determination (n2)) [nM]
1 | 33 | 33 | 33 | ≥ 27 | ≥ 27 | ≥ 27 | ≥ 27 | CCCCCCCCCCCCCCCC(=O)N[C@@H](CCC(=O)NCCCC[C@H](NC(=O)CNC(=O)CNC(=O)[C@H](CCCCN)NC(=O)[C@@H](NC(=O)[C@@H](NC(=O)[C@](C)(Cc1ccccc1)NC(=O)[C@H](C)NC(=O)[C@@H](NC(=O)[C@](C)(Cc1ccccc1)NC(=O)[C@H](CCC(=O)O)NC(=O)[C@H](CCCCN)NC(=O)[C@H](C)NC(=O)[C@H](C)NC(=O)[C@H](CCC(=O)O)NC(=O)CNC(=O)[C@H](CCC(=O)O)NC(=O)[C@H](CC(C)C)NC(=O)[C@](C)(Cc1ccccc1)NC(=O)[C@H](CO)NC(=O)[C@H](CO)NC(=O)[C@@H](NC(=O)[C@H](CC(=O)O)NC(=O)[C@H](CO)NC(=O)[C@@H](NC(=O)[C@](C)(Cc1ccccc1)NC(=O)[C@H](CO)NC(=O)CNC(=O)[C@H](CCC(=O)O)NC(=O)C(C)(C)NC(=O)[C@@H](N)Cc1c[nH]cn1)[C@@H](C)O)C(C)C)[C@@H](C)CC)C(C)C)C(C)C)C(N)=O)C(=O)O [compound 39] (H-H[Aib]EGS[αMeF]TSDVSS[αMeF]LEGEAAKE[αMeF]IA[αMeF]VVKGGK([γGlu-Palmitoyl])-NH2; N-terminus assumed) |  |  |  | 
2 | 3100 | 1800 | 2440 | 3 | 1.1 | 15 | 19 | CSCC[C@H](NC(=O)[C@H](CC(C)C)NC(=O)[C@](C)(Cc1ccccc1)NC(=O)[C@H](CCC(N)=O)NC(=O)[C@@H](NC(=O)[C@](C)(Cc1ccccc1)NC(=O)[C@H](CC(=O)O)NC(=O)[C@H](CCC(N)=O)NC(=O)[C@H](C)NC(=O)[C@H](CCCNC(=N)N)NC(=O)[C@H](CCCNC(=N)N)NC(=O)[C@H](CO)NC(=O)[C@H](CC(=O)O)NC(=O)[C@H](CC(C)C)NC(=O)[C@](C)(Cc1ccccc1)NC(=O)[C@H](CCCCN)NC(=O)[C@H](CO)NC(=O)[C@](C)(Cc1ccccc1)NC(=O)[C@H](CC(=O)O)NC(=O)[C@H](CO)NC(=O)[C@@H](NC(=O)[C@](C)(Cc1ccccc1)NC(=O)[C@H](CO)NC(=O)CNC(=O)[C@H](CCC(N)=O)NC(=O)C(C)(C)NC(=O)[C@@H](N)Cc1c[nH]cn1)[C@@H](C)O)C(C)C)C(=O)N[C@@H](CC(N)=O)C(=O)N[C@H](C(N)=O)[C@@H](C)O [compound 14] (H-H[Aib]QGS[αMeF]TSD[αMeF]SK[αMeF]LDSRRAQD[αMeF]VQ[αMeF]LMNT-NH2) |  |  |  | 

Row | Structure (SMILES) | EC50 [1, 4] [pM] | EC50 [1, 5] [pM] | EC50 [1, 6] [pM] | EC50 [2, 7] [nM] | EC50 [2, 8] [nM] | EC50 [3, 9] [nM] | EC50 [3, 10] [nM] | EC50 ([2]; Primary assay EC50 Gluc-R (n1), first determination (n1)) [nM] | EC50 ([2]; read-out: Primary assay EC50 Gluc-R (n2), second determination (n2)) [nM] | EC50 ([3]; Primary assay EC50 GIP-R (n1), first determination (n1)) [nM] | EC50 ([3]; read-out: Primary assay EC50 GIP-R (n2), second determination (n2)) [nM]
3 | CC[C@H](C)[C@H](NC(=O)[C@](C)(Cc1ccccc1)NC(=O)[C@H](CCC(=O)O)NC(=O)[C@H](CCCCNC(=O)CC[C@H](NC(=O)CC[C@H](NC(=O)CC[C@H](NC(=O)CCCCCCCCCCCOc1ccc(C(=O)O)cc1)C(=O)O)C(=O)O)C(=O)O)NC(=O)[C@H](C)NC(=O)[C@H](C)NC(=O)[C@H](CCC(=O)O)NC(=O)CNC(=O)[C@H](CCC(=O)O)NC(=O)[C@H](CC(C)C)NC(=O)[C@](C)(Cc1ccccc1)NC(=O)[C@H](CO)NC(=O)[C@](C)(CO)NC(=O)[C@@H](NC(=O)[C@H](CC(=O)O)NC(=O)[C@H](CO)NC(=O)[C@@H](NC(=O)[C@](C)(Cc1ccccc1)NC(=O)[C@H](CO)NC(=O)CNC(=O)[C@H](CCC(=O)O)NC(=O)C(C)(C)NC(=O)[C@@H](N)Cc1c[nH]cn1)[C@@H](C)O)C(C)C)C(=O)N[C@@H](C)C(=O)N[C@@](C)(Cc1ccccc1)C(=O)N[C@H](C(=O)N[C@H](C(=O)N[C@@](C)(CCCCN)C(=O)NCC(=O)NCC(N)=O)C(C)C)C(C)C [compound 139] | 29 | 22 | 25.5 |  |  |  |  | ≥ 26 | ≥ 26 | ≥ 26 | ≥ 26

— patent publication US10414811B2, “Protease-resistant lipidated GLP-1 analogs” (MEDIMMUNE LIMITED, priority 2015, dated 2019)
